Source: US20260284080A1 (priority 2025, published 2026)

Assay: physchem
Format: physicochemical
Source text: Abiraterone acetate is a white to off-white, non-hygroscopic, crystalline powder.

- pKa: 5.19
Compound: CC(=O)O[C@H]1CC[C@@]2(C)C(=CC[C@@H]3[C@@H]2CC[C@]2(C)C(c4cccnc4)=CC[C@@H]32)C1 [abiraterone acetate, (3B)-17-(3-pyridinyl) androsta-5,16-dien-3-yl acetate]
